In assay [1] the test system is Vero. Kind of assay: cells. The format is functional, cell-based. The following applies: Chlorocebus sabaeus.
Assay [2] concerns the target FAD-linked sulfhydryl oxidase ALR (Homo sapiens, UniProt P55789). The assay is described as follows: inhibitors of human ALR sulfhydryl oxidase, dose response, biochemical, H2O2 detection, luminescence, cherry-pick (AID 493248).
The next assay has as its target T1, Coagulation factor XII (Homo sapiens, UniProt P00748).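 Also: activated factor XIIa alpha cleaving a fluorogenic AMC peptide substrate; inhibitor potency from loss of enzyme activity.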
T1 sequence (P00748 whole entry): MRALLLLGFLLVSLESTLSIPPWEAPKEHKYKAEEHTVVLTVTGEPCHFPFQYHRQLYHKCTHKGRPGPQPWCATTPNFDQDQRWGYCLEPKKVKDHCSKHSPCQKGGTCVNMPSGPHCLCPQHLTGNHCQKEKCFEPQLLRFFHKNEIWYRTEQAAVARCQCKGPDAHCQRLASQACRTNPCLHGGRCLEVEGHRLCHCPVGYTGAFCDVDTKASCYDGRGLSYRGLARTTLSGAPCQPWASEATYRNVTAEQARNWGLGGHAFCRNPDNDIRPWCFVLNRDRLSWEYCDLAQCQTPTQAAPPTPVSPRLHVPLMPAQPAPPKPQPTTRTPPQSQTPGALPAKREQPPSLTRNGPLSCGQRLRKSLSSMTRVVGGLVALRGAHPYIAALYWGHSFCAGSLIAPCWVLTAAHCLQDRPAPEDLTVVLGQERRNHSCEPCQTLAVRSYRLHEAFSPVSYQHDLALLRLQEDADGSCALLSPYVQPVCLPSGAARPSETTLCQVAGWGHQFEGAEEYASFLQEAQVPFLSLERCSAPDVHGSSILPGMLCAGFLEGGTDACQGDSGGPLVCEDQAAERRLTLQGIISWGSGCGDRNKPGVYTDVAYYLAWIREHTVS
Type of assay: functional.

Assay [3] relates to Vero. The assay is described as follows: cells. Type of assay: functional. The following applies: Chlorocebus sabaeus.
Assay [4] has as its target T2, Ubiquitin-conjugating enzyme E2 N (Homo sapiens, UniProt P61088).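 Also: Dose-response confirmation in a TR-FRET assay detecting UBC13-driven polyubiquitin chain formation, inhibition measured.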
T2 sequence (P61088 whole entry): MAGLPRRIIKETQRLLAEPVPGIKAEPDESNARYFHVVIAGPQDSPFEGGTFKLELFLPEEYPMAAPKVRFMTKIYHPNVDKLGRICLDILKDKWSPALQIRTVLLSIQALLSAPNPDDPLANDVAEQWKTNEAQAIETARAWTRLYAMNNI
Type of assay: functional.

In another assay the target is T3, Leucine aminopeptidase (Plasmodium falciparum 3D7, UniProt Q8IL11).
T3 sequence (Q8IL11 whole entry): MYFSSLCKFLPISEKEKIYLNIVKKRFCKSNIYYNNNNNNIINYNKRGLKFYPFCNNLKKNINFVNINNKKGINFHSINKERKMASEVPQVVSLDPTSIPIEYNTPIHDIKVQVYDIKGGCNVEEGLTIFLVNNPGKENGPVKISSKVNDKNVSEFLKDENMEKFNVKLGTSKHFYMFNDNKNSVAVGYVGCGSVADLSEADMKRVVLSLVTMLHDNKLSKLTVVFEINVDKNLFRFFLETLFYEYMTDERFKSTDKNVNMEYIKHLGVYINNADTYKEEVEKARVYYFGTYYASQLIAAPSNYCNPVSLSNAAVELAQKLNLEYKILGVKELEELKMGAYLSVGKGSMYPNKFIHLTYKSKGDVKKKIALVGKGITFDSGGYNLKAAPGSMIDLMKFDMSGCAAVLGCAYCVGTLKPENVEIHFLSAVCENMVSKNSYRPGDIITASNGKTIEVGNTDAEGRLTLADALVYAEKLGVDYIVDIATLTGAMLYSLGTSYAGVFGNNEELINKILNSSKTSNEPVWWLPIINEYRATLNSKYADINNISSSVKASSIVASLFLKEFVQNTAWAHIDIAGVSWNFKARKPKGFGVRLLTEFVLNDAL
The assay is described as follows: P. falciparum M17LAP inhibitors, primary screen, biochemical, fluorogenic H-Leu-NHMec substrate, 1536-well (AID 1619). The format is functional.

The target of assay [5] is T4, Replicative DNA helicase DnaB (Mycobacterium tuberculosis, UniProt P9WMR3).
T4 sequence (P9WMR3 whole entry): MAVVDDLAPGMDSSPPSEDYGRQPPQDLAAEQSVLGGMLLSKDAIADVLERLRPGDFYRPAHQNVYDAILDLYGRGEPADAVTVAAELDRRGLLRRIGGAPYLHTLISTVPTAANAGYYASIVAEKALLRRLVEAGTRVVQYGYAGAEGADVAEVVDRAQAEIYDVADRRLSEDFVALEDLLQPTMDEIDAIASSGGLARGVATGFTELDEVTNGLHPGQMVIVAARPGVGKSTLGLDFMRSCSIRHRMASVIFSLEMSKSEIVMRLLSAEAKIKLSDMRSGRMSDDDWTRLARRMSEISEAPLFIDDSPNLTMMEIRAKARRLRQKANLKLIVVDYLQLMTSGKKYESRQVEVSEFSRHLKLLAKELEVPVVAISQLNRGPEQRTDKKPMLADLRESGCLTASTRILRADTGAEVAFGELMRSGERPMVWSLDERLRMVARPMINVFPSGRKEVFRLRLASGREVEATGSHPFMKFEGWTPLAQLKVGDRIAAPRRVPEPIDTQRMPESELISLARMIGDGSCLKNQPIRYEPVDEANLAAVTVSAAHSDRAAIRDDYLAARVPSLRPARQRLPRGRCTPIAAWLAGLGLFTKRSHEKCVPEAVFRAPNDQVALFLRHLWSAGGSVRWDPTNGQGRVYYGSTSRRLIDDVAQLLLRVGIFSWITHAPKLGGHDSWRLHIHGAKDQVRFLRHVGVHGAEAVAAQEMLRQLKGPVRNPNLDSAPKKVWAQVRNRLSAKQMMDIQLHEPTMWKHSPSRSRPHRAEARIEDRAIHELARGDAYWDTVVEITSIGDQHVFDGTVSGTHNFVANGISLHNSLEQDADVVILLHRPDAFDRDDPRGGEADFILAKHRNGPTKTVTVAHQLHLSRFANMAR
Kind of assay: DnaB intein splicing inhibitors, dose response, biochemical, cell-free fluorescence (AID 449749). The format is functional.

A further assay addresses T5, Protein RecA (Mycobacterium tuberculosis, UniProt P9WHJ3).
T5 sequence (P9WHJ3 whole entry): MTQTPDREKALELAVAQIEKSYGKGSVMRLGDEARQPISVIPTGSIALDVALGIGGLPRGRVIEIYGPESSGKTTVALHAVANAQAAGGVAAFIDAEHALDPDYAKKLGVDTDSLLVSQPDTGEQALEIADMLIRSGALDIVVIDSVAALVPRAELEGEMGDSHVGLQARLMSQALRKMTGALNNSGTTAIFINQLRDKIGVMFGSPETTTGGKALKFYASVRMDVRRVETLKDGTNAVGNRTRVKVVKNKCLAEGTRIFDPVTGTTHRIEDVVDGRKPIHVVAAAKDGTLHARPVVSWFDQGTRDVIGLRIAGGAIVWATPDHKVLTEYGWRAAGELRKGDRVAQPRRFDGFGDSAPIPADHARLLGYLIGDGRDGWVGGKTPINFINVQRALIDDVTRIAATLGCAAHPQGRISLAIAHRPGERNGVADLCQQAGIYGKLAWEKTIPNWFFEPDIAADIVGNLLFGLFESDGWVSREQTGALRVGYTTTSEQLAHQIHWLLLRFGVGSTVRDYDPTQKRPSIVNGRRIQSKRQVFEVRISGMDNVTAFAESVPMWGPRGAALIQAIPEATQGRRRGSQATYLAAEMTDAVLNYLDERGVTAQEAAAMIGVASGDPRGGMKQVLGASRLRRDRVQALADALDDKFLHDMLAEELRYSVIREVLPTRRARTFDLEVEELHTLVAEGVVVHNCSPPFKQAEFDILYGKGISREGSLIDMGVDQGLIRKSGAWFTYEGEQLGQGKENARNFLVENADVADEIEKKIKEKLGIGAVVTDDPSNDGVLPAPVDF
Kind of assay: Fluorescence Cell-Free Homogeneous Dose Retest to Identify Inhibitors of RecA-Intein Splicing Activity. [Related pubchem assays (depositor defined):AID2097, AID2223, AID489010, AID492950]. Type of assay: functional.

Assay [6] is described as follows: Luminescence Cell-Based Dose Retest to Confirm Inhibitors of Cancer Stem Cells. [Related pubchem assays (depositor defined):AID2717, AID2721]. Type of assay: functional. The following applies: Homo sapiens.
In a further assay the target is Nonstructural protein 1 (Influenza A virus, UniProt Q194T2). Type of assay: functional, Influenza A virus (A/California/07/2009(H1N1)).
Nonstructural protein 1, sequence (Q194T2 whole entry): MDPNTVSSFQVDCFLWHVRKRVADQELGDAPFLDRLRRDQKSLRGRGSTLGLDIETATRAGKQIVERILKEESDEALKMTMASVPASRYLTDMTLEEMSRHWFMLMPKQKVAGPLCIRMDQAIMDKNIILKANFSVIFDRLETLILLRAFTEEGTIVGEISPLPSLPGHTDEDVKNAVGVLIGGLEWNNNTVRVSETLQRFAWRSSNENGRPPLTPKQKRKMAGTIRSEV
Assay [7] concerns the target Glyceraldehyde-3-phosphate dehydrogenase (Homo sapiens, UniProt P04406).
Assay [8] can be described thus: microbe, parasite or virus in culture. The format is functional. The following applies: Mycobacterium tuberculosis.
In the next assay the test system is INS1. Kind of assay: beta cell apoptosis inhibitors, cytokine rescue, dose response, luminescence, retest (AID 449756).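 Also: cell death triggered by IL-1 beta plus TNF-alpha plus IFN-gamma mixture; protective hits raise ATP signal compared with cytokine alone wells.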 Type of assay: functional, cell-based. The conditions noted are these: Rattus norvegicus.
In a further assay the target is Cytochrome P450 2C19 (Homo sapiens, UniProt P33261). Kind of assay: Cytochrome panel assay with activity outcomes. Panel member name: p450-cyp2c19 Compounds with AC50 equal or less than 10 uM are considered active. The format is functional. The following applies: read-out: AC50.
Cytochrome P450 2C19, sequence (P33261 whole entry): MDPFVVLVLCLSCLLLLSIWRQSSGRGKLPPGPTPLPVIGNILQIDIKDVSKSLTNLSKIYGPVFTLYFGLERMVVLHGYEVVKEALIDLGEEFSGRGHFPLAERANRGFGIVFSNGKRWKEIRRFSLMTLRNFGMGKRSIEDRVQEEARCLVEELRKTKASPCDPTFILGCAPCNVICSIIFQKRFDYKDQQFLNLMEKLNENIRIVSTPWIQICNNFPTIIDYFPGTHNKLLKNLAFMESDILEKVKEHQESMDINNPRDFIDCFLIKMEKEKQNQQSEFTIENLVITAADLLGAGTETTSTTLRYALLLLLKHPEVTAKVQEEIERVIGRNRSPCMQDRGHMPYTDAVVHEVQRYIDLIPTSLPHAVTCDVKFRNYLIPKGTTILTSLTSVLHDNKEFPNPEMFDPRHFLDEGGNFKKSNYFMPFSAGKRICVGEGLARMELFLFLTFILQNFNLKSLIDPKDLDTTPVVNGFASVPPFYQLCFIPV
In another assay the target is Cytochrome P450 2D6 (Homo sapiens, UniProt P10635).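 Also: CYP2D6 member of a cytochrome P450 panel assay.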
Cytochrome P450 2D6, sequence (P10635 whole entry): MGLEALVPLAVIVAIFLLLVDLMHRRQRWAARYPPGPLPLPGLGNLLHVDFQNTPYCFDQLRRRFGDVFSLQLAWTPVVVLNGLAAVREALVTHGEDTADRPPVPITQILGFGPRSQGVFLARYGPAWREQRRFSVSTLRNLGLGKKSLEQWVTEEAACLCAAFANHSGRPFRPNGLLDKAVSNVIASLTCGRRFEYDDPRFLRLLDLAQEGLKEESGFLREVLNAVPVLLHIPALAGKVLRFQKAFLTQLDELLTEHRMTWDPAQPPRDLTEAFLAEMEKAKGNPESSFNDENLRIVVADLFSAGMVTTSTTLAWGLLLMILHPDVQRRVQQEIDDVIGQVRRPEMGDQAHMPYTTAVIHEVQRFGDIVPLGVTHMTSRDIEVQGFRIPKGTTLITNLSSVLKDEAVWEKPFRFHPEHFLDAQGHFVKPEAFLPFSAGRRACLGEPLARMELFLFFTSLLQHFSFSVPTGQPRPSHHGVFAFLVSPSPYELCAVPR

The source made the active and inactive calls.

What is called IC50 is the concentration that gives 50% inhibition. The AC50 is the midpoint of the concentration-response curve, whichever way the signal moves. For orientation: EC50 means the concentration needed to bring the measured effect to its halfway point.

Glyceraldehyde-3-phosphate dehydrogenase, sequence (P04406 whole entry): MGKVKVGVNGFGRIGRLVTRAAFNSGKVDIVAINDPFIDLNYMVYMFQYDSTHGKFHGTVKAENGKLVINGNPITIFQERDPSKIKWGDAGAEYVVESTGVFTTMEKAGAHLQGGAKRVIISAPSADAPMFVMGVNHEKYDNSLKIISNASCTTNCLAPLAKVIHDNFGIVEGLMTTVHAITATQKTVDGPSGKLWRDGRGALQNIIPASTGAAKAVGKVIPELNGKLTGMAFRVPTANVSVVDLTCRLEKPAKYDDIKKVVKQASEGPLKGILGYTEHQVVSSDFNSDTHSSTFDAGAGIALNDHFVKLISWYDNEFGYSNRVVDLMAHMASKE
FAD-linked sulfhydryl oxidase ALR, sequence (P55789 whole entry): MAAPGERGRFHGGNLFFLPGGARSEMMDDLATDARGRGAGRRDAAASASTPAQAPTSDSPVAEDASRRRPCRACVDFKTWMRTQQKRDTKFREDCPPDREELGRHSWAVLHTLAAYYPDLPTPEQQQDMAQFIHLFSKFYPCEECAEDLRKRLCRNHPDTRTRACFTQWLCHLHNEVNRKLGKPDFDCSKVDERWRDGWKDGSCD

On to `Nc1nc(C2CC2)c(Sc2sc(N)nc2C2CC2)s1`, for which, in the assay with Vero [1], the half-inhibitory concentration (IC50) was > 25 µM (active). For the same compound, the AC50 in assay [2] was 0.511 µM (active). Consider `O=[N+]([O-])c1cccc(-c2cn3c([n+]2-c2ccccc2)SCC3)c1`, for which the IC50 with Vero [1] was 5.3 µM (active). For the compound `O=C(NCCCN1CCCC1)c1ccc2c(Cl)c3c(nc2c1)CCCC3`, the concentration for half-maximal inhibition (IC50) on Coagulation factor XII was > 50 µM (inconclusive); in the assay on Vero [1], > 25 µM (active). Also, the CC50 with Vero [3] is > 25 µM (active). For the same compound, the AC50 in assay [2] is 0.01 µM (active). Turning to `CCOC(=O)c1ccc(NC(=O)c2[nH]cnc2C(=O)NC2CCN(C(=O)OC(C)(C)C)CC2)cc1`, the IC50 in [4] is > 20 µM (inactive). On to `CC1=NN(CCC#N)C(=O)/C1=C/c1ccc(N(C)C)cc1`, for which the IC50 at Leucine aminopeptidase is 120 µM (active). Besides, in [5], the AC50 is 2.79 µM (inconclusive). Further, the half-maximal effective concentration (EC50) on Protein RecA was 3.17 µM (active). `CCCCCc1cc(=O)oc2c(C(CCN(CC)CC)c3cc(OC)c(OC)c(OC)c3)c(OC)cc(OC)c12` (stereo not drawn): the half-maximal activity concentration (AC50) in assay [6] was 7.71 µM (active). For the same compound, the IC50 in [4] was > 20 µM (inactive).

Take `COc1ccc(C2C3=C(CC(C)(C)CC3=O)Oc3ncn(Cc4ccco4)c(=N)c32)cc1` (stereo not drawn): the 50% inhibitory concentration (IC50) at Nonstructural protein 1 was > 100 µM (active).

Take `O=C(Nc1nncs1)c1cccc(S(=O)(=O)N2CCCC2)c1`: in assay [7], the concentration for half-maximal inhibition (IC50) is > 100 µM (not active). With `CCn1c(C)nc2cc(C(=O)OC(C(F)(F)C(F)F)C(F)(F)C(F)F)ccc21`, the CC50 was > 25 µM (active) in the assay with Vero [3] and > 40 µM (active) in [8]. Further, the 50% inhibitory concentration (IC50) with Vero [1] was 24.4 µM (active). Consider `Cc1ccc(CNC(=O)CSc2nc3ccsc3c(=O)n2Cc2ccc(C(=O)O)cc2)cc1`, for which the IC50 in assay [4] is > 20 µM (inactive). With `CCOc1ccc(C(C(=O)NCC2CCCO2)N(C(=O)c2snc(C(N)=O)c2N)c2ccc3c(c2)OCCO3)cc1` (stereo not drawn), the IC50 in assay [4] is > 20 µM (inactive). As to `Oc1ccc(C=NNC(=S)Nc2cccnc2)nc1`, on Nonstructural protein 1, the IC50 is 0.992 µM (active). In the case of `Cc1ccc2ccc3cccnc3c2n1`, in the assay on INS1, the AC50 is 0.865 µM (active). Moreover, the 50% inhibitory concentration (IC50) on Nonstructural protein 1 is 14.5 µM (active).

For `Cc1sc(N/N=C/c2cccnc2)nc1-c1ccccc1`, the values for the half-maximal activity concentration (AC50) at Cytochrome P450 2C19 and on Cytochrome P450 2D6 were 0.501 µM (inconclusive) and 0.794 µM (inconclusive), respectively. In the assay on Vero [3], the CC50 is > 25 µM (active). Besides, the IC50 with Vero [1] was > 25 µM (active). For the compound `COc1cccc(S(=O)(=O)Nc2cnc3ccccc3c2)c1`, in [7], the concentration for half-maximal inhibition (IC50) is listed as > 100 µM (not active).

(Values after ChEMBL document CHEMBL1201862, “PubChem BioAssay data set” (2004).)
